What was measured:
HCT116 = HCT116 human tumor cell line; cited from earlier work
NALM-6 = NALM-6 human tumor cell line; cited from earlier work
[1] = tested on: TIF1γ expression in sorted PB monocytes (CD14+ cells); assay: TIF1γ expression (RQ-PCR, immuno-blotting) in sorted PB monocytes (CD14+ cells) of a CMML patient before and after treatment with decitabine; format: in vivo, human; settings: one CMML patient with very low Tif1γ level, after 5 cycles of decitabine; sorted PB monocytes (FIG. 7A)
Protocol: Protein extracts were prepared from purified human monocytes (CD14+ cells) for SDS-PAGE and immuno-blotting with anti-TIF1γ antibody. Equivalent loading of lanes was controlled by the use of an anti-HSC70 antibody.

control Lin- cells = control Lin- cells cultured for 10 days in the presence or absence of TGF-β or TGF-β inhibitor, formation of myeloid cells; format: cell-based, mouse; settings: 10 days culture, compared to untreated cultures
Protocol: (§1) To answer this question, control and Tif1γ-deficient Lin^− cells were cultured for 10 days in the presence or absence of TGF-β. Cells were also treated with TGF-β inhibitor.

[2] = tested on: Tif1γ-deficient Lin- cells; assay: Tif1γ-deficient Lin- cells cultured for 10 days in the presence or absence of TGF-β, myelopoiesis; format: cell-based, mouse; settings: 10 days culture
Protocol: as §1

**Q.** Which results are given for `O=C(O)C(Cc1c[nH]c2ccccc12)N1C(=O)c2ccccc2C1=O` (centres unmarked) [RG 108, N-phthalyl-1-tryptophan]?
**A.** proliferation (HCT116): inhibits; proliferation (NALM-6): inhibits

**Q.** Which “TIF1γ expression, increase compared to the level measured before treatment” value [1] does the source give for `Nc1ncn([C@H]2C[C@H](O)[C@@H](CO)O2)c(=O)n1` [decitabine, 4-amino-1-(2-deoxy-b-D-erythro-pentofuranosyl)-1,3,5-triazin-2(1 H)-one] here?
**A.** 8 fold

**Q.** Which “formation of myeloid cells” value (control Lin- cells) does the source give for TGF-β here?
**A.** limited formation of myeloid cells

**Q.** And the myelopoiesis [2]?
**A.** did not inhibit myelopoiesis

From patent publication US20110301110A1, “TRIM33 (TIF1gamma) AS A NEW DIAGNOSTIC MARKER OF CHRONIC MYELOMONOCYTIC LEUKEMIA (CMML)” (priority 2010, published 2011)
